Our source for the IC50 values is patent US10562891B2, “Quinazolinones as PARP14 inhibitors” (Ribon Therapeutics Inc., priority 2017, dated 2020).

Counter-ions that a name gives are not always drawn. A value given as a limit tells only on which side of the number the result lay.

Sequence of catalytic domain of human PARP14 (Q460N5 1611-1801): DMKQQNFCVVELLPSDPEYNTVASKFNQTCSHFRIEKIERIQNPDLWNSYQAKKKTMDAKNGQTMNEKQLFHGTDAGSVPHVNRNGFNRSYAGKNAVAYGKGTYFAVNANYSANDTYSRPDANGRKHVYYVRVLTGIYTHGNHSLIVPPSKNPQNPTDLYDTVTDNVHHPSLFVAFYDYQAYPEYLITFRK

The test has as its target catalytic domain of human PARP14 (Homo sapiens (Human), UniProt Q460N5). Description: Enzymatic assay for inhibition of PARP14 (DELFIA, auto-modification with biotin-NAD). The format is biochemical. The conditions noted are these: auto-modification of PARP14 by biotin-NAD, 50 nM PARP14, 3 μM biotin-NAD. In outline:
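His-TEV-tagged PARP14 catalytic domain (50 nM) preincubated with compound 30 min at 25 °C, then auto-modified with 3 μM biotin-NAD for 3 h at 25 °C in HEPES pH 8 buffer with DTT. IC50 from 4-parameter fit, rucaparib and DMSO as controls.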
The IC50 is the point on the concentration scale where inhibition reaches its midpoint. Low values mean greater potency, high ones weaker potency. In turn, `Cc1cccc2c(=O)[nH]c(CSC3CC(CN)C3)nc12` (stereo not shown) [Example 182, 2-(((3-(aminomethyl)cyclobutyl)thio)methyl)-8-methylquinazolin-4(3H)-one] gave a half-maximal inhibitory concentration (IC50) of 1 to 10 µM.
Then `O=c1[nH]c(CSC2CCOCC2)nc2cc(OCC3CCOC3)cc(Br)c12` (stereo not shown) [Example 376], with below 1 µM; and `Cc1ccc(F)c2c(=O)[nH]c(CSC3CCNCC3)nc12` [Example 51, 5-Fluoro-8-methyl-2-((piperidin-4-ylthio)methyl)quinazolin-4(3H)-one Hydrochloride], with below 1 µM; and `Cc1cccc2c(=O)[nH]c(CS[C@H]3C[C@H](N)C3)nc12` [Example 52, 2-(((trans-3-Aminocyclobutyl)thio)methyl)-8-methylquinazolin-4(3H)-one Hydrochloride], with 1 to 10 µM.
Then `O=c1[nH]c(CSC2CCOCC2)nc2cccnc12` [Example 36, 2-(((Tetrahydro-2H-pyran-4-yl)thio)methyl)pyrido[3,2-d]pyrimidin-4(3H)-one], with above 10 µM; and `O=c1[nH]c(CSC2CCOCC2)nc2nc(NC3CCCC3)ccc12` [Example 186, 7-(cyclopentylamino)-2-(((tetrahydro-2H-pyran-4-yl)thio)methyl)pyrido[2,3-d]pyrimidin-4(3H)-one], with below 1 µM; and `O=c1[nH]c(CSC2CCOCC2)nc2cc(OCC3CCN(C4COC4)CC3)cc(F)c12` [Example 301, 5-Fluoro-7-((1-(oxetan-3-yl)piperidin-4-yl)methoxy)-2-(((tetrahydro-2H-pyran-4-yl)thio)methyl)quinazolin-4(3H)-one], with below 1 µM.
Under `CC(F)(F)CN1CCC(SCc2nc3cc(NC4CCCC4)ccc3c(=O)[nH]2)CC1` [Example 264, 7-(Cyclopentylamino)-2-(((1-(2,2-difluoropropyl)piperidin-4-yl)thio)methyl)quinazolin-4(3H)-one] stands below 1 µM; under `CC(C)(O)C(=O)N1CCC(SCc2nc3cc(NC4CCCC4)cc(F)c3c(=O)[nH]2)CC1` [Example 279, 7-(Cyclopentylamino)-5-fluoro-2-(((1-(2-hydroxy-2-methylpropanoyl)piperidin-4-yl)thio)methyl)quinazolin-4(3H)-one], below 1 µM.
On to `O=c1[nH]c(CSC2CCOCC2)nc2cc(N[C@H]3CCCOC3)ccc12` [Example 187, (S)-7-((tetrahydro-2H-pyran-3-yl)amino)-2-(((tetrahydro-2H-pyran-4-yl)thio)methyl)quinazolin-4(3H)-one], for which the IC50 was below 1 µM.
Then `O=c1[nH]c(CSC2CCOCC2)nc2cc(NC3CCNCC3)ccc12` [Example 129, 7-(Piperidin-4-ylamino)-2-(((tetrahydro-2H-pyran-4-yl)thio)methyl) quinazolin-4(3H)-one], with 1 to 10 µM; and `O=c1[nH]c(CSC2CCS(=O)(=O)CC2)nc2cc(OCC3CCC3)cc(F)c12` [Example 304, 7-(cyclobutylmethoxy)-2-(((1,1-dioxidotetrahydro-2H-thiopyran-4-yl)thio)methyl)-5-fluoroquinazolin-4(3H)-one], with below 1 µM.
Then `CN1CCC(COc2cc(F)c3c(=O)[nH]c(CSC4CCOCC4)nc3c2)C(F)(F)C1` (stereo not shown) [Example 427], with below 1 µM; and `O=c1[nH]c(CS[C@H]2CC[C@@H](C(=O)O)CC2)nc2cc(NC3CCCC3)cc(F)c12` [Example 216, cis-4-(((7-(Cyclopentylamino)-5-fluoro-4-oxo-3,4-dihydroquinazolin-2-yl)methyl)thio)cyclohexane-1-carboxylic acid], with 1 to 10 µM.
Under `Cc1cccc2c(=O)[nH]c(CS[C@H]3CC[C@H](CN)CC3)nc12` [Example 66, 2-(((trans-4-(Aminomethyl)cyclohexyl)thio)methyl)-8-methylquinazolin-4(3H)-one Trifluoroacetate] stands below 1 µM; under `COC(=O)N1CCC(SCc2nc3cc(NC4CCCC4)ccc3c(=O)[nH]2)CC1` [Example 208, Methyl 4-(((7-(cyclopentylamino)-4-oxo-3,4-dihydroquinazolin-2-yl)methyl)thio)piperidine-1-carboxylate], below 1 µM.
